Non-standard residues stand in square brackets, D forms with d. Residues, ends and D or L forms follow the SMILES beside them. *: point of attachment. PEG12 = NCCOCCOCCOCCOCCOCCOCCOCCOCCOCCOCCOCCOCCC(=O)O; Palmitoyl = CCCCCCCCCCCCCCCC(=O)*; Octanoyl = CCCCCCCC(=O)*; AEEA = NCCOCCOCC(=O)O; Aib = CC(C)(N)C(=O)O
Test: Inhibition of MERS-CoV Spike glycoprotein mediated cell-cell fusion
Parameters: species or system Middle East respiratory syndrome-related coronavirus

## CSCC[C@H](NC(=O)[C@H](CCC(=O)O)NC(=O)[C@H](Cc1ccc(O)cc1)NC(=O)[C@@H](NC(=O)[C@H](CC(C)C)NC(=O)[C@H](CC(=O)O)NC(=O)[C@H](CC(C)C)NC(C)=O)[C@@H](C)O)C(=O)N[C@@H](CC(C)C)C(=O)N[C@@H](CO)C(=O)N[C@@H](CC(C)C)C(=O)N[C@@H](CCC(N)=O)C(=O)N[C@@H](CCC(N)=O)C(=O)N[C@H](C(=O)N[C@H](C(=O)N[C@@H](CCCCN)C(=O)N[C@@H](C)C(=O)N[C@@H](CC(C)C)C(=O)N[C@@H](CC(N)=O)C(=O)N[C@@H](CCC(=O)O)C(=O)N[C@@H](CO)C(=O)N[C@@H](Cc1ccc(O)cc1)C(N)=O)C(C)C)C(C)C
  EC50: > 50 µM

## CSCC[C@H](NC(=O)C(C)(C)NC(=O)[C@H](Cc1ccc(O)cc1)NC(=O)[C@H](CCC(=O)O)NC(=O)[C@H](CC(C)C)NC(=O)C(C)(C)NC(=O)[C@H](CC(C)C)NC(C)=O)C(=O)N[C@@H](CCCCN)C(=O)N[C@@H](CO)C(=O)N[C@@H](CC(C)C)C(=O)N[C@@H](CCC(N)=O)C(=O)N[C@@H](CCC(N)=O)C(=O)N[C@H](C(=O)N[C@H](C(=O)N[C@@H](CCCCN)C(=O)N[C@@H](C)C(=O)N[C@@H](CC(C)C)C(=O)N[C@@H](CC(N)=O)C(=O)N[C@@H](CCC(=O)O)C(=O)N[C@@H](CO)C(=O)N[C@@H](Cc1ccc(O)cc1)C(N)=O)C(C)C)C(C)C
  EC50: 14.8 µM

## CSCC[C@H](NC(=O)[C@H](CCC(=O)O)NC(=O)[C@H](Cc1ccc(O)cc1)NC(=O)[C@@H](NC(=O)[C@H](CC(C)C)NC(=O)[C@H](CC(=O)O)NC(=O)[C@H](CC(C)C)NC(C)=O)[C@@H](C)O)C(=O)N[C@@H](CC(C)C)C(=O)N[C@@H](CO)C(=O)N[C@@H](CC(C)C)C(=O)N[C@@H](CCC(N)=O)C(=O)N[C@@H](CCC(N)=O)C(=O)N[C@H](C(=O)N[C@H](C(=O)NC(C)(C)C(=O)N[C@@H](C)C(=O)N[C@@H](CC(C)C)C(=O)N[C@@H](CC(N)=O)C(=O)NC(C)(C)C(=O)N[C@@H](CO)C(=O)N[C@@H](Cc1ccc(O)cc1)C(N)=O)C(C)C)C(C)C
  EC50: 3.04 µM

## CSCC[C@H](NC(=O)[C@H](CCC(=O)O)NC(=O)C(C)(C)NC(=O)[C@@H](NC(=O)[C@H](CC(C)C)NC(=O)[C@H](CC(=O)O)NC(=O)C(C)(C)NC(C)=O)[C@@H](C)O)C(=O)N[C@@H](CC(C)C)C(=O)N[C@@H](CO)C(=O)N[C@@H](CC(C)C)C(=O)N[C@@H](CCC(N)=O)C(=O)N[C@@H](CCC(N)=O)C(=O)N[C@H](C(=O)N[C@H](C(=O)N[C@@H](CCCCN)C(=O)N[C@@H](C)C(=O)N[C@@H](CC(C)C)C(=O)N[C@@H](CC(N)=O)C(=O)N[C@@H](CCC(=O)O)C(=O)N[C@@H](CO)C(=O)N[C@@H](Cc1ccc(O)cc1)C(N)=O)C(C)C)C(C)C
  EC50: > 50 µM

## CSCC[C@H](NC(=O)C(C)(C)NC(=O)[C@H](Cc1ccc(O)cc1)NC(=O)[C@@H](NC(=O)[C@H](CC(C)C)NC(=O)C(C)(C)NC(=O)[C@H](CC(C)C)NC(C)=O)[C@@H](C)O)C(=O)N[C@@H](CC(C)C)C(=O)N[C@@H](CO)C(=O)N[C@@H](CC(C)C)C(=O)N[C@@H](CCC(N)=O)C(=O)N[C@@H](CCC(N)=O)C(=O)N[C@H](C(=O)N[C@H](C(=O)N[C@@H](CCCCN)C(=O)N[C@@H](C)C(=O)N[C@@H](CC(C)C)C(=O)N[C@@H](CC(N)=O)C(=O)N[C@@H](CCC(=O)O)C(=O)N[C@@H](CO)C(=O)N[C@@H](Cc1ccc(O)cc1)C(N)=O)C(C)C)C(C)C
  EC50: 2.33 µM

## CSCC[C@H](NC(=O)[C@H](CCC(=O)O)NC(=O)C(C)(C)NC(=O)[C@@H](NC(=O)[C@H](CC(C)C)NC(=O)[C@H](CC(=O)O)NC(=O)[C@H](CC(C)C)NC(C)=O)[C@@H](C)O)C(=O)N[C@@H](CC(C)C)C(=O)NC(C)(C)C(=O)N[C@@H](CC(C)C)C(=O)N[C@@H](CCC(N)=O)C(=O)N[C@@H](CCC(N)=O)C(=O)N[C@H](C(=O)N[C@H](C(=O)N[C@@H](CCCCN)C(=O)N[C@@H](C)C(=O)N[C@@H](CC(C)C)C(=O)N[C@@H](CC(N)=O)C(=O)N[C@@H](CCC(=O)O)C(=O)N[C@@H](CO)C(=O)N[C@@H](Cc1ccc(O)cc1)C(N)=O)C(C)C)C(C)C
  EC50: > 50 µM

## CSCC[C@H](NC(=O)[C@H](CCC(=O)O)NC(=O)[C@H](Cc1ccc(O)cc1)NC(=O)[C@@H](NC(=O)[C@H](CC(C)C)NC(=O)[C@H](CC(=O)O)NC(=O)[C@H](CC(C)C)NC(C)=O)[C@@H](C)O)C(=O)N[C@@H](CC(C)C)C(=O)N[C@@H](CO)C(=O)N[C@@H](CC(C)C)C(=O)N[C@@H](CCC(N)=O)C(=O)N[C@@H](CCC(N)=O)C(=O)N[C@H](C(=O)N[C@H](C(=O)N[C@@H](CCCCN)C(=O)N[C@@H](C)C(=O)N[C@@H](CC(C)C)C(=O)N[C@@H](CC(N)=O)C(=O)N[C@@H](CCC(=O)O)C(=O)N[C@@H](C)C(=O)N[C@@H](Cc1ccc(O)cc1)C(N)=O)C(C)C)C(C)C
  EC50: 6.67 µM

## CSCC[C@H](NC(=O)[C@H](CCC(=O)O)NC(=O)[C@H](Cc1ccc(O)cc1)NC(=O)C(C)(C)NC(=O)[C@H](CC(C)C)NC(=O)[C@H](CC(=O)O)NC(=O)[C@H](CC(C)C)NC(C)=O)C(=O)NC(C)(C)C(=O)N[C@@H](CO)C(=O)N[C@@H](CC(C)C)C(=O)N[C@@H](CCC(N)=O)C(=O)N[C@@H](CCC(N)=O)C(=O)N[C@H](C(=O)N[C@H](C(=O)N[C@@H](CCCCN)C(=O)N[C@@H](C)C(=O)N[C@@H](CC(C)C)C(=O)N[C@@H](CC(N)=O)C(=O)N[C@@H](CCC(=O)O)C(=O)N[C@@H](CO)C(=O)N[C@@H](Cc1ccc(O)cc1)C(N)=O)C(C)C)C(C)C
  EC50: 24.4 µM

## CSCC[C@H](NC(=O)[C@H](CCC(=O)O)NC(=O)[C@H](Cc1ccc(O)cc1)NC(=O)[C@@H](NC(=O)[C@H](CC(C)C)NC(=O)[C@H](CC(=O)O)NC(=O)[C@H](CC(C)C)NC(C)=O)[C@@H](C)O)C(=O)N[C@@H](CC(C)C)C(=O)N[C@@H](CO)C(=O)N[C@@H](CC(C)C)C(=O)N[C@@H](CCC(N)=O)C(=O)NC(C)(C)C(=O)N[C@H](C(=O)N[C@H](C(=O)N[C@@H](CCCCN)C(=O)NC(C)(C)C(=O)N[C@@H](CC(C)C)C(=O)N[C@@H](CC(N)=O)C(=O)N[C@@H](CCC(=O)O)C(=O)N[C@@H](CO)C(=O)N[C@@H](Cc1ccc(O)cc1)C(N)=O)C(C)C)C(C)C (Ac-LDLTYEMLSLQ[Aib]VVK[Aib]LNESY-NH2)
  EC50: 6.66 µM

## CSCC[C@H](NC(=O)[C@H](CCC(=O)O)NC(=O)[C@H](Cc1ccc(O)cc1)NC(=O)[C@@H](NC(=O)[C@H](CC(C)C)NC(=O)[C@H](CC(=O)O)NC(=O)[C@H](CC(C)C)NC(C)=O)[C@@H](C)O)C(=O)N[C@@H](CC(C)C)C(=O)N[C@@H](CO)C(=O)N[C@@H](CC(C)C)C(=O)NC(C)(C)C(=O)N[C@@H](CCC(N)=O)C(=O)N[C@H](C(=O)N[C@H](C(=O)NC(C)(C)C(=O)N[C@@H](C)C(=O)N[C@@H](CC(C)C)C(=O)N[C@@H](CC(N)=O)C(=O)N[C@@H](CCC(=O)O)C(=O)N[C@@H](CO)C(=O)N[C@@H](Cc1ccc(O)cc1)C(N)=O)C(C)C)C(C)C (Ac-LDLTYEMLSL[Aib]QVV[Aib]ALNESY-NH2)
  EC50: 2.55 µM

## CSCC[C@H](NC(=O)[C@H](CCC(=O)O)NC(=O)[C@H](Cc1ccc(O)cc1)NC(=O)[C@@H](NC(=O)[C@H](CC(C)C)NC(=O)[C@H](CC(=O)O)NC(=O)[C@H](CC(C)C)NC(C)=O)[C@@H](C)O)C(=O)N[C@@H](CC(C)C)C(=O)NC(C)(C)C(=O)N[C@@H](CC(C)C)C(=O)N[C@@H](CCC(N)=O)C(=O)N[C@@H](CCC(N)=O)C(=O)NC(C)(C)C(=O)N[C@H](C(=O)N[C@@H](CCCCN)C(=O)N[C@@H](C)C(=O)N[C@@H](CC(C)C)C(=O)N[C@@H](CC(N)=O)C(=O)N[C@@H](CCC(=O)O)C(=O)N[C@@H](CO)C(=O)N[C@@H](Cc1ccc(O)cc1)C(N)=O)C(C)C (Ac-LDLTYEML[Aib]LQQ[Aib]VKALNESY-NH2)
  EC50: > 50 µM

## CSCC[C@H](NC(=O)C(C)(C)NC(=O)[C@H](Cc1ccc(O)cc1)NC(=O)[C@H](CCC(=O)O)NC(=O)[C@H](CC(C)C)NC(=O)C(C)(C)NC(=O)[C@H](CC(C)C)NC(C)=O)C(=O)N[C@@H](CCCCN)C(=O)N[C@@H](CO)C(=O)N[C@@H](CC(C)C)C(=O)N[C@@H](CCC(N)=O)C(=O)N[C@@H](CCC(=O)O)C(=O)N[C@H](C(=O)N[C@H](C(=O)N[C@@H](CCCCN)C(=O)N[C@@H](CCCCN)C(=O)N[C@@H](CC(C)C)C(=O)N[C@@H](CC(N)=O)C(=O)N[C@@H](CCC(=O)O)C(=O)N[C@@H](CO)C(=O)N[C@@H](Cc1ccc(O)cc1)C(N)=O)C(C)C)C(C)C (Ac-L[Aib]LEY[Aib]MKSLQEVVKKLNESY-NH2)
  EC50: 24 µM

## CSCC[C@H](NC(=O)C(C)(C)NC(=O)[C@H](Cc1ccc(O)cc1)NC(=O)[C@@H](NC(=O)[C@H](CC(C)C)NC(=O)C(C)(C)NC(=O)[C@H](CC(C)C)NC(C)=O)[C@@H](C)O)C(=O)N[C@@H](CC(C)C)C(=O)N[C@@H](CO)C(=O)N[C@@H](CC(C)C)C(=O)N[C@@H](CCC(N)=O)C(=O)N[C@@H](CCC(=O)O)C(=O)N[C@H](C(=O)N[C@H](C(=O)N[C@@H](CCCCN)C(=O)N[C@@H](CCCCN)C(=O)N[C@@H](CC(C)C)C(=O)N[C@@H](CC(N)=O)C(=O)N[C@@H](CCC(=O)O)C(=O)N[C@@H](CO)C(=O)N[C@@H](Cc1ccc(O)cc1)C(N)=O)C(C)C)C(C)C (Ac-L[Aib]LTY[Aib]MLSLQEVVKKLNESY-NH2)
  EC50: 3.62 µM

## CCCCCCCC(=O)NCCCC[C@H](NC(=O)COCCOCCNC(=O)[C@H](Cc1ccc(O)cc1)NC(=O)[C@H](CO)NC(=O)[C@H](CCC(=O)O)NC(=O)[C@H](CC(N)=O)NC(=O)[C@H](CC(C)C)NC(=O)[C@H](CCCCN)NC(=O)[C@H](CCCCN)NC(=O)[C@@H](NC(=O)[C@@H](NC(=O)[C@H](CCC(=O)O)NC(=O)[C@H](CCC(N)=O)NC(=O)[C@H](CC(C)C)NC(=O)[C@H](CO)NC(=O)[C@H](CC(C)C)NC(=O)[C@H](CCSC)NC(=O)C(C)(C)NC(=O)[C@H](Cc1ccc(O)cc1)NC(=O)[C@@H](NC(=O)[C@H](CC(C)C)NC(=O)C(C)(C)NC(=O)[C@H](CC(C)C)NC(C)=O)[C@@H](C)O)C(C)C)C(C)C)C(N)=O (Ac-L[Aib]LTY[Aib]MLSLQEVVKKLNESY[AEEA]K(Octanoyl)-NH2)
  EC50: 0.864 µM

## CCCCCCCCCCCCCCCC(=O)NCCCC[C@H](NC(=O)CCOCCOCCOCCOCCOCCOCCOCCOCCOCCOCCOCCOCCNC(=O)[C@H](Cc1ccc(O)cc1)NC(=O)[C@H](CO)NC(=O)[C@H](CCC(=O)O)NC(=O)[C@H](CC(N)=O)NC(=O)[C@H](CC(C)C)NC(=O)[C@H](CCCCN)NC(=O)[C@H](CCCCN)NC(=O)[C@@H](NC(=O)[C@@H](NC(=O)[C@H](CCC(=O)O)NC(=O)[C@H](CCC(N)=O)NC(=O)[C@H](CC(C)C)NC(=O)[C@H](CO)NC(=O)[C@H](CC(C)C)NC(=O)[C@H](CCSC)NC(=O)C(C)(C)NC(=O)[C@H](Cc1ccc(O)cc1)NC(=O)[C@@H](NC(=O)[C@H](CC(C)C)NC(=O)C(C)(C)NC(=O)[C@H](CC(C)C)NC(C)=O)[C@@H](C)O)C(C)C)C(C)C)C(N)=O (Ac-L[Aib]LTY[Aib]MLSLQEVVKKLNESY[PEG12]K(Palmitoyl)-NH2)
  EC50: 1.42 µM
